Common to all, as to type: biochemical
One test has as its target T1, PDK-1 (Homo sapiens, UniProt O15530).
T1 sequence (O15530 1-556): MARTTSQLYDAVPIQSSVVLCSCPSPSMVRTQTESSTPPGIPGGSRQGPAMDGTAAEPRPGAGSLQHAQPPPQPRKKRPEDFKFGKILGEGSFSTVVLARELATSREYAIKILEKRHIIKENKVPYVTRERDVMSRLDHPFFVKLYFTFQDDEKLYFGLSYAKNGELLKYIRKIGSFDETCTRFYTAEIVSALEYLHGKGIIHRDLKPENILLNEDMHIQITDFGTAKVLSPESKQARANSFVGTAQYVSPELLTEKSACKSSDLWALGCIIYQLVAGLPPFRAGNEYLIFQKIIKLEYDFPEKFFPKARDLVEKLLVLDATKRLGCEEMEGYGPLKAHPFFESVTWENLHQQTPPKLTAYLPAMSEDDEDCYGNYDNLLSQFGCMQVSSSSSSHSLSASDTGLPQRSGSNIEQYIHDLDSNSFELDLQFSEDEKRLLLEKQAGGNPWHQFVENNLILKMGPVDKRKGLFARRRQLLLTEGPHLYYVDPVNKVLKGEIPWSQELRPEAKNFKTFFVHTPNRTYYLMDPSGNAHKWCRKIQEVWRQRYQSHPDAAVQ
Briefly: PDK-1 kinase inhibition ELISA assay (phosphorylation of His6-tagged SGK1 S422D by PDK-1). Conditions: PDK-1 ELISA, Table 11; read-out: Average IC50. For orientation: In an ELISA, binding on a coated surface is turned into a signal by an enzyme label.

The target in another test is PKA (Homo sapiens, UniProt P17612). As to the kind of experiment: PKA kinase inhibition, Z'-LYTE FRET assay. Conditions: 20 μM ATP.
The target of another test is Akt1 (Homo sapiens, UniProt P31749). As to the kind of experiment: Akt1 kinase inhibition, Z'-LYTE FRET assay. Conditions: 100 μM ATP. The source says:
The ability of illustrative Benzo[c][2,7]naphthyridine Derivatives to inhibit PKA, Akt1, S6K in vitro can be determined using a Fluorescence Resonance Energy Transfer (FRET) assay, such as a Z′-LYTE™ Kinase Assay Platform, commercially available from Invitrogen (c.f. Rodems et al., ASSAY Drug Devel. Technol. 1:9-19 (2002) and Zhang et al., J. Biomol. Screen. 4:67-73 (1999)). Z′-Lyte™ assay is an in vitro FRET-based assay that utilizes differential sensitivity of phosphorylated and non-phosphorylated peptides to proteolytic cleavage. The peptide substrate (also available from Invitrogen for each of PKA, Akt1 and S6K) is labeled with two different fluorophores, a fluorescence donor at one end of the peptide and a fluorescence acceptor at the other end of the peptide. In the primary kinase reaction, the kinase phosphorylates the peptide substrate in the presence of ATP. In the secondary reaction, a site-specific protease recognizes and cleaves non-phosphorylated peptides, but not phosphorylated peptides. Cleavage disrupts FRET between the donor and acceptor fluorophores on the peptide, whereas uncleaved phosphorylated peptides maintain FRET. Based on a formula that uses the ratio of donor emission (at 460 nm) to acceptor emission (at […]) after excitation of the donor fluorophore at 400 nm, the extent of phosphorylation of the peptide substrates is calculated. IC50 values of illustrative Benzo[c][2,7]naphthyridine Derivatives, shown in Table 12, are calculated using LSW Data Analysis package add-in for Excel (Microsoft).

SMILES strings stand for the structures.

Chain of Akt1 (P31749 whole entry, species assumed): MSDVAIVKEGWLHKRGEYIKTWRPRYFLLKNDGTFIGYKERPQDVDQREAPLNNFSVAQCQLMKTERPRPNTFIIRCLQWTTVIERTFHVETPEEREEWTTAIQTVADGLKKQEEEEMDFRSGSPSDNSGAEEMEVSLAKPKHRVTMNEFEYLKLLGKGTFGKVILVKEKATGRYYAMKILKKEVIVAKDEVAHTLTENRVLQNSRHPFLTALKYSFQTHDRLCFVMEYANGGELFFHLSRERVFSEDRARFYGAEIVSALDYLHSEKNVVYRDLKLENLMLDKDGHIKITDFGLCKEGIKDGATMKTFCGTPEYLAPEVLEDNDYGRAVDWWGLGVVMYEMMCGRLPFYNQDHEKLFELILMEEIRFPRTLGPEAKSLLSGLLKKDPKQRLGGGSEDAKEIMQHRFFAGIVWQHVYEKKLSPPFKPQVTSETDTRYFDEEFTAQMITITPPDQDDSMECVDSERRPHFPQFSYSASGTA
From the text for PKA: Z′-Lyte™ assay is an in vitro FRET-based assay that utilizes differential sensitivity of phosphorylated and non-phosphorylated peptides to proteolytic cleavage. The peptide substrate (also available from Invitrogen for each of PKA, Akt1 and S6K) is labeled with two different fluorophores, a fluorescence donor at one end of the peptide and a fluorescence acceptor at the other end of the peptide. In the primary kinase reaction, the kinase phosphorylates the peptide substrate in the presence of ATP. In the secondary reaction, a site-specific protease recognizes and cleaves non-phosphorylated peptides, but not phosphorylated peptides. Cleavage disrupts FRET between the donor and acceptor fluorophores on the peptide, whereas uncleaved phosphorylated peptides maintain FRET. Based on a formula that uses the ratio of donor emission (at 460 nm) to acceptor emission (at 535 nM) after excitation of the donor fluorophore at 400 nm, the extent of phosphorylation of the peptide substrates is calculated.

Regarding `CC(C)(C)OC(=O)N[C@H](COc1cncc(-c2cc3c(cnc4cc(C#CCCn5ccnc5)ccc43)c(N)n2)c1)Cc1ccccc1` [Ia-6, tert-Butyl-{(1S)-2-[(5-{4-amino-8-[4-(1H-imidazol-1-yl)but-1-yn-1-yl]benzo[c]-2,7-naphthyridin-2-yl}pyridin-3-yl)oxy]-1-benzylethyl}carbamate], the IC50 on PDK-1 was above 5000 nM; at PKA, above 20000 nM; against Akt1, above 20000 nM.

For `CC(C)(C)OC(=O)N[C@H](COc1cncc(-c2cc3c(cnc4cc(Br)ccc43)c(N)n2)c1)Cc1ccccc1` [Ia-7, tert-butyl ((1S)-2-{[5-(4-amino-8-bromobenzo[c]-2,7-naphthyridin-2-yl)pyridin-3-yl]oxy}-1-benzylethyl)carbamate], the results for the IC50 at PDK-1, at PKA and against Akt1 were above 5000 nM, above 20000 nM and above 20000 nM, respectively.

In the case of `COc1cc2c(cc1OCCCN1CCCC1)ncc1c(N)nc(-c3cccnc3C)cc12` [Ia-9, 9-Methoxy-2-(2-methylpyridin-3-yl)-8-(3-pyrrolidin-1-ylpropoxy)benzo[c]-2,7-naphthyridin-4-amine], the IC50 is 2120 nM on PDK-1, above 10000 nM at PKA and 4000 nM on Akt1.

For the compound `COc1cc2c(cc1OCCCN1CCN(C)CC1)ncc1c(N)nc(-n3ccnc3)cc12` [Ia-14, 2-(1H-imidazol-1-yl)-9-methoxy-8-(3-(4-methylpiperazin-1-yl)propoxy)benzo[c][2,7]naphthyridin-4-amine], the IC50 on PDK-1 is 356 nM; against PKA, above 10000 nM; at Akt1 it was 350 nM.

As for `COc1cc2c(cc1N1CCC(N3CCCC3)CC1)ncc1c(N)nc(-c3cccnc3C)cc12` [Ia-19, 9-methoxy-2-(2-methylpyridin-3-yl)-8-(4-pyrrolidin-1-ylpiperidin-1-yl)benzo[c]-2,7-naphthyridin-4-amine], the 50% inhibitory concentration (IC50) was above 5000 nM on PDK-1 and above 10000 nM on PKA.

Turning to `CN(C)CC#Cc1ccc2c(c1)ncc1c(N)nc(-n3ccnc3)cc12` [Ia-36, 8-[3-(Dimethylamino)prop-1-yn-1-yl]-2-(1H-imidazol-1-yl)benzo[c]-2,7-naphthyridin-4-amine], the IC50 stood at 531 nM at PDK-1 and 2000 nM on Akt1.

`COc1cc2ncc3c(N)nc(-n4ccnc4)cc3c2cc1OC` [Ib-74, 2-(1H-imidazol-1-yl)-8,9-dimethoxybenzo[c]-2,7-naphthyridin-4-amine]: the IC50 was above 20000 nM at PKA and 180 nM on Akt1.

With `COc1cc2ncc3c(N)nc(-c4cncc(Nc5ccc(C(N)=O)cc5)c4)cc3c2cc1OC` [Ib-206, 4-{[5-(4-amino-8,9-dimethoxybenzo[c][2,7]naphthyridin-2-yl)pyridin-3-yl]amino}benzamide], the IC50 on PDK-1 amounted to 183 nM.

`COc1ccc(Oc2cncc(-c3cc4c(cnc5cc(OC)c(OC)cc54)c(N)n3)c2)cc1` [Ib-210, 8,9-dimethoxy-2-[5-(4-methoxyphenoxy)pyridin-3-yl]benzo[c][2,7]naphthyridin-4-amine]: the half-maximal inhibitory concentration (IC50) at PDK-1 is above 700 nM.

`COc1cc2ncc3c(N)nc(-c4ccc(Br)c(F)c4)cc3c2cc1OC` [Ib-234, 2-(4-bromo-3-fluorophenyl)-8,9-dimethoxybenzo[c][2,7]naphthyridin-4-amine]: the IC50 at PDK-1 was 1000 nM.

On to `COc1ccc(-c2cc3c(cnc4cc(OC)c(OC)cc43)c(N)n2)cn1` [Ib-237, 8,9-dimethoxy-2-(6-methoxypyridin-3-yl)benzo[c][2,7]naphthyridin-4-amine], for which, at PDK-1, the IC50 turned out to be 50 nM.

For the compound `COc1cc2ncc3c(N)nc(-c4cc(F)cc(F)c4)cc3c2cc1OC` [Ib-239, 2-(3,5-difluorophenyl)-8,9-dimethoxybenzo[c][2,7]naphthyridin-4-amine], the IC50 at PDK-1 worked out at 1000 nM.

Turning to `COc1cc2ncc3c(N)nc(-c4ccc(F)c(F)c4)cc3c2cc1OC` [Ib-240, 2-(3,4-difluorophenyl)-8,9-dimethoxybenzo[c][2,7]naphthyridin-4-amine], the IC50 at PDK-1 was found to be 998 nM.

In the case of `COc1cc2ncc3c(N)nc(-c4cc(F)cc(C#N)c4)cc3c2cc1OC` [Ib-241, 3-(4-amino-8,9-dimethoxybenzo[c][2,7]naphthyridin-2-yl)-5-fluorobenzonitrile], the IC50 at PDK-1 was found to be 1000 nM.

As to `COc1cc(F)cc(-c2cc3c(cnc4cc(OC)c(OC)cc43)c(N)n2)c1` [Ib-242, 2-(3-fluoro-5-methoxyphenyl)-8,9-dimethoxybenzo[c][2,7]naphthyridin-4-amine], the IC50 at PDK-1 worked out at 147 nM.

Consider `COc1cc2ncc3c(N)nc(-c4cccc(C(=O)N5CCN(c6ccccn6)CC5)c4)cc3c2cc1OC` [Ib-247, 8,9-dimethoxy-2-{3-[(4-pyridin-2-ylpiperazin-1-yl)carbonyl]phenyl}benzo[c][2,7]naphthyridin-4-amine], for which the IC50 on PDK-1 was 1000 nM.

In the case of `COc1cc2ncc3c(N)nc(-c4cccc(C(=O)NCc5cccnc5)c4)cc3c2cc1OC` [Ib-248, 3-(4-amino-8,9-dimethoxybenzo[c][2,7]naphthyridin-2-yl)-N-(pyridin-3-ylmethyl)benzamide], on PDK-1, the IC50 was 1000 nM.

As to `COc1cc2ncc3c(N)nc(-c4ccc5[nH]ncc5c4)cc3c2cc1OC` [Ib-249, 2-(1H-indazol-5-yl)-8,9-dimethoxybenzo[c][2,7]naphthyridin-4-amine], the IC50 on PDK-1 was found to be 205 nM.

As for `COc1cc2ncc3c(N)nc(-c4cc(F)cc(CCCN)c4)cc3c2cc1OC` [Ib-250, 2-(3-(3-Aminopropyl)-5-fluorophenyl)-8,9-dimethoxybenzo[c][2,7]naphthyridin-4-amine], the IC50 on PDK-1 was found to be 34 nM.

With `CC[C@@H](COc1cncc(-c2cc3c(cnc4cc(OC)c(OC)cc43)c(N)n2)c1)NC(=N)N` [Ib-251, (S)-1-(1-(5-(4-amino-8,9-dimethoxybenzo[c][2,7]naphthyridin-2-yl)pyridin-3-yloxy)butan-2-yl)guanidine], at PDK-1, the IC50 was determined as 32 nM.

With `COc1cc2ncc3c(N)nc(-c4cncc(C#CCN)c4)cc3c2cc1OC` [Ib-252, 2-[5-(3-aminoprop-1-yn-1-yl)pyridin-3-yl]-8,9-dimethoxybenzo[c][2,7]naphthyridin-4-amine], the IC50 at PDK-1 amounted to 53 nM.

Consider `COc1cc2ncc3c(N)nc(-c4cncc(CCCN)c4)cc3c2cc1OC` [Ib-256, 2-[5-(3-aminopropyl)pyridin-3-yl]-8,9-dimethoxybenzo[c][2,7]naphthyridin-4-amine], for which, on PDK-1, the IC50 amounted to 27 nM.

For `COc1cc2ncc3c(N)nc(-c4cncc(CCC(C)(C)N)c4)cc3c2cc1OC` [Ib-257, 2-[5-(3-amino-3-methylbutyl)pyridin-3-yl]-8,9-dimethoxybenzo[c][2,7]naphthyridin-4-amine], on PDK-1, the 50% inhibitory concentration (IC50) turned out to be 29 nM.

With `COc1cc2ncc3c(N)nc(-c4cncc(CCC5(N)CCCCC5)c4)cc3c2cc1OC` [Ib-258, 2-{5-[2-(1-aminocyclohexyl)ethyl]pyridin-3-yl}-8,9-dimethoxybenzo[c][2,7]naphthyridin-4-amine], on PDK-1, the IC50 was found to be 27 nM.

Regarding `C=CCOc1cncc(-c2cc3c(cnc4cc(OC)c(OC)cc43)c(N)n2)c1` [Ib-266, 2-(5-(Allyloxy)pyridin-3-yl)-8,9-dimethoxybenzo[c][2,7]naphthyridin-4-amine], on PDK-1, the IC50 stood at 18 nM.

In the case of `COc1cc2ncc3c(N)nc(-c4cncc(OCC(=O)c5ccccc5)c4)cc3c2cc1OC` [Ib-267, 2-{[5-(4-amino-8,9-dimethoxybenzo[c][2,7]naphthyridin-2-yl)pyridin-3-yl]oxy}-1-phenylethanone], the IC50 on PDK-1 was 798 nM.

On to `CCCCNC(=N)c1cncc(-c2cc3c(cnc4cc(OC)c(OC)cc43)c(N)n2)c1` [Ib-268, 5-(4-Amino-8,9-dimethoxybenzo[c][2,7]naphthyridin-2-yl)-N-butylnicotinimidamide], for which, at PDK-1, the IC50 came out at 1000 nM.

Consider `COc1cc2ncc3c(N)nc(-c4cncc(C(=N)NC(C)C)c4)cc3c2cc1OC` [Ib-269, 5-(4-Amino-8,9-dimethoxybenzo[c][2,7]naphthyridin-2-yl)-N-isopropylnicotin-imidamide], for which the IC50 at PDK-1 amounted to 606 nM.

On to `CCC(C)NC(=N)c1cncc(-c2cc3c(cnc4cc(OC)c(OC)cc43)c(N)n2)c1` (stereo not shown) [Ib-270, 5-(4-Amino-8,9-dimethoxybenzo[c][2,7]naphthyridin-2-yl)-N-sec-butylnicotin-imidamide], for which the IC50 on PDK-1 came out at 606 nM.

As usually defined, the IC50 is the concentration at which inhibition is half-maximal.

Values taken from patent US20080293712A1, “Benzo[C][2,7]Naphtyridine Derivatives, Methods of Making Thereof and Methods of Use Thereof” (WYETH, priority 2007, published 2008).
